How the values were obtained:
[1] = tested on: smoke exposure-induced COPD rats; experiment: Pharmacodynamic study of 17-HPC inhalation in smoke exposure-induced COPD rats (lung function, BALF differential count, HE staining, body weight); assay type: in vivo, Wistar rats; details: for weight increase: at 24 weeks
Experimental: (§1) Seventy-two Wistar rats were randomly divided into the blank control group, model group, 17-HPC (0.5 mg/ml, 0.25 mg/ml and 0.1 mg/ml) groups, BUD (0.5 mg/ml and 0.1 mg/ml) groups, and combination treatment (0.5 mg/ml BUD+0.25 mg/ml 17-HPC and 0.1 mg/ml BUD+0.25 mg/ml 17-HPC) groups. Drug concentration is the nebulized solution concentration. Lung function (forced vital capacity) of rats was measured using the small animal spirometer, and differential count in the BALF was determined under the microscope. Serum and BALF cytokine (IL-6, IL-17, TNF-α and IL-β) levels were measured by ELISA. Inflammatory cell infiltration area and MLI in rat lung tissues were determined by HE staining.

Sprague-Dawley rats = experiment: Seven-day inhalation toxicity study in rats (GLP); assay type: in vivo
Experimental: A 7-day inhalation toxicity study in rats was conducted under GLP conditions. In this study, aerosolized 17-HPC was administered to Sprague-Dawley rats (10/sex/group) at 8, 24, and 72 mg/kg/day for 7 consecutive days. A control group of rats was dosed with aerosolized vehicle. Animals were observed daily for clinical signs. Body weight and food consumption were recorded at pretest, and then on Days 1, 4, and 7. In order to evaluate reversibility of 17-HPC treatment, a satellite rat group (5/sex/group) was dosed by inhalation at 72 mg/kg/day for 7 days, and then was sacrificed on Day 14. Except for the rats in the satellite group, all animals were sacrificed on Day 8. Hematology and biochemistry examinations were performed at the end of the study. Organ weight, gross pathology, and histopathology evaluations were performed.

[2] = biological target: ABCB1 efflux transporters (Homo sapiens, UniProt P08183); details: literature (Bloise et al. 2016); cited from earlier work
Chain of ABCB1 efflux transporters (P08183 whole entry): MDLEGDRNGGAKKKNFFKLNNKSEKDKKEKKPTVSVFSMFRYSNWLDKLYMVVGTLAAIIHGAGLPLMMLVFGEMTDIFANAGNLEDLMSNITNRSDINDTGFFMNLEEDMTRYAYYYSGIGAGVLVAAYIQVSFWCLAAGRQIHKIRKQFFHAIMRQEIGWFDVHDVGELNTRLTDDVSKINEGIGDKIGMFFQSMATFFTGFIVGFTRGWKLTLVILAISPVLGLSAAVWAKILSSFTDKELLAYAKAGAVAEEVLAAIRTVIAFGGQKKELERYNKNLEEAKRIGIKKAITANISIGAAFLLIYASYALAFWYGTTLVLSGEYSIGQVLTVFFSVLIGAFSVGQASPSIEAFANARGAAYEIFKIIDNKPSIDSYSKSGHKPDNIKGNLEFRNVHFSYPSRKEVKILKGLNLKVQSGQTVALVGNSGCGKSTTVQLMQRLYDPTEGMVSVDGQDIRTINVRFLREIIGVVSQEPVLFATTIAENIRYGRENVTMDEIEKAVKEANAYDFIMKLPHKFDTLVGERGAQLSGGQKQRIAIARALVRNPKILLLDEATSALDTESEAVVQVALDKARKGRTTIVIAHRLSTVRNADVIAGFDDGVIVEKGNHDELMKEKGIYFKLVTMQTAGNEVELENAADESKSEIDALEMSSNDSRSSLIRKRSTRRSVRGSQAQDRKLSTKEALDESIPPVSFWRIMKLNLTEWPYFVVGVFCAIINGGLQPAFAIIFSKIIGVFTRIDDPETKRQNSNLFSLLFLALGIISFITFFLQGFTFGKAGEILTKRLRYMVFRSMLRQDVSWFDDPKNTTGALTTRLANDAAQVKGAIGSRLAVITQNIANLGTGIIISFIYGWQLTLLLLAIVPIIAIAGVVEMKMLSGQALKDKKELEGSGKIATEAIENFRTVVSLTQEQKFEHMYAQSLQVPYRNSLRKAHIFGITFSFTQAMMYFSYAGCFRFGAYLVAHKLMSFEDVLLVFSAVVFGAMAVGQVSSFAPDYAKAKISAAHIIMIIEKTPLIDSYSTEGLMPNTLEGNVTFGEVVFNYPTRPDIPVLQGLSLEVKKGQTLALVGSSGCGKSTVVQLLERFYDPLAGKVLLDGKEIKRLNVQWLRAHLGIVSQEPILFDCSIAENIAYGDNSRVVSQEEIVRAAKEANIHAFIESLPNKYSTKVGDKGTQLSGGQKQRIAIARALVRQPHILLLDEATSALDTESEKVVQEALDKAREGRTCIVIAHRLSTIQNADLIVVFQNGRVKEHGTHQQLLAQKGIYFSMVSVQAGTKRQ

[3] = tested on: IL-6, IL-17, TNF-α and IL-1β; experiment: Serum and BALF cytokine levels by ELISA in COPD rats; assay type: in vivo, Wistar rats; details: aside from the low dose (0.1 mg/ml) 17-HPC group
Experimental: as §1, with “To examine the in vitro and in vivo efficacy of 17-HPC inhalation in chronic obstructive pulmonary disease (COPD) rats, a rat model of COPD was established by exposing Wistar rats to CS for 1 hour every day for a total of 180 days. Seventy-two” for “Seventy-two”

[4] = PK of PR2005 formulations (oral gavage, capsule, IM) in female dogs, relative bioavailability vs MAKENA; assay type: in vivo; details: 750 mg compared to 250 mg
Source text: This study determined the pharmacokinetic parameters of the test drug PR2005 (also referred to herein as 17-HPC) in different formulations after oral gavage or capsule administrations in dogs. This study further determined the relative bioavailability of the test drug PR2005 in each formulation, compared to intramuscular injection solution (MAKENA®).
PK parameters were estimated, including maximum plasma drug concentration (Cmax), time to reach Cmax (Tmax), time delay in absorption process (Tlag), area under the plasma concentration-time curve from time 0 to the last quantifiable data point (AUClast), area under the plasma concentration-time curve from time zero to infinity (AUCinf), plasma half-life (t1/2) and apparent plasma clearance (CL/F), apparent volume of distribution (Vz/F). All these parameters were computed using standard non-compartmental methods of analysis. […] Plasma PR2005 PK data was analyzed in Phoenix WinNonLin 8.1 (Certara USA, Inc.).
Log-transformed values of AUCinf were analyzed using a linear mixed-effects model. […] After back transformation from the log scale, estimates of geometric LSM and 90% CI for the ratio of means were calculated. Relative bioavailability (Fr %) was calculated as the ratio of dose normalized geometric least square mean (LSM) for test formulation and IM solution: […]

Structure (SMILES)	weight increase ([1]; vs model group)	clinical signs and body weight change (Sprague-Dawley rats; 8 mg/kg/day group, inhalation 7 days, preliminary)	Hematological and biochemical parameters (Sprague-Dawley rats; 8 mg/kg/day vs vehicle, preliminary)	organ weights, necropsy and histopathology (Sprague-Dawley rats; 8 mg/kg/day, preliminary)	NOAEL relative to proposed initial clinical dose (300 μg) based on body surface areas (Sprague-Dawley rats; rat NOAEL 48 mg/m^2/day vs 222 μg/m^2/day)	no observed adverse effect level (NOAEL), body surface (Sprague-Dawley rats; rats, inhalation, 7 consecutive days) [mg/m^2/day]	pathological alterations after 7-day recovery period (Sprague-Dawley rats; satellite group, 72 mg/kg/day for 7 days, sacrificed Day 14)	MLI ([1]; lung tissue, HE staining)	inflammatory cell infiltration in lung tissues (HE staining) ([1]; nebulized inhalation)	percentage of neutrophils in rat BALF ([1]; nebulized inhalation)	FEV0.2/FVC % ([1]; nebulized inhalation, vs model group, after 24 weeks of CS exposure)	efflux transporter substrate [2]	TNF-α, IL-1β, IL-6 and IL-17 levels in the BALF [3]	dose proportionality of Cmax and AUC [4]
CCCC1O[C@@H]2C[C@H]3[C@@H]4CCC5=CC(=O)C=C[C@]5(C)[C@H]4[C@@H](O)C[C@]3(C)[C@]2(C(=O)CO)O1 (stereo partly drawn) [BUD, budesonide]	inhibited weight increase													
CCCCCC(=O)O[C@]1(C(C)=O)CC[C@H]2[C@@H]3CCC4=CC(=O)CC[C@]4(C)[C@H]3CC[C@@]21C [Solution 17-HPC, 17-[(1-Oxohexyl)oxyl]-pregn-4-ene-3,20-dione]	no difference in weight increase between the 17-HPC groups and the model group	no clinical signs and body weight change were observed	comparable between the animals treated with vehicle and 17-HPC at 8 mg/kg/day	Significant changes in organ weights, necropsy and histopathology were not recorded	approximately 216 times	48	no remarkable pathological alterations in any animals from the satellite group	decreased in the other 17-HPC groups and BUD groups in a dose-dependent manner	attenuated in the 17-HPC groups	reduced the percentage of neutrophils in rat BALF	improved FEV0.2/FVC % in a dose-dependent manner	substrate of ABCB1 efflux transporters	can downregulate TNF-α, IL-1β, IL-6 and IL-17 levels in the BALF	generally greater than dose proportional

— patent US20240285649A1, “PROGESTOGEN FORMULATIONS FOR USE IN MODULATING A CYTOKINE STORM MEDIATOR” (Shenzhen Evergreen Therapeutics Co., Ltd, priority 2020, published 2024)
